Data reported in patent publication US11970511B2, “Tetrahydropyran-based thiodisaccharide mimics as Galectin-3 inhibitors” (BRISTOL-MYERS SQUIBB COMPANY, priority 2018, dated 2024).

Molecular target: His-tagged recombinant human Gal-3 (hGal-3) (Homo sapiens, UniProt P17931)
Test: Gal-3 HTRF assay: His-tagged hGal-3 binding to B-ASF, Anti-His terbium antibody / Streptavidin d2 detection;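 also: compound preincubated 30 min with hGal-3, then 1 h with B-ASF, DMSO wells with B-ASF serving as positive control and those lacking B-ASF as negative control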
Conditions: 15 nM hGal-3, 15 nM B-ASF, three replicates, room temperature

Sequence of His-tagged recombinant human Gal-3 (hGal-3) (P17931 whole entry): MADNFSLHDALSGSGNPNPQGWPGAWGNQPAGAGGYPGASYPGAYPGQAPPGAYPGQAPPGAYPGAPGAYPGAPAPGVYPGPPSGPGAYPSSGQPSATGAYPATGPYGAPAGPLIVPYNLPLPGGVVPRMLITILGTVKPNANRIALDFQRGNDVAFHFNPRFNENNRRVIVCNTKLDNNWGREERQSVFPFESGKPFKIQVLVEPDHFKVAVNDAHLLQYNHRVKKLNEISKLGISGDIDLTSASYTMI

**Q.** For COc1ncc(-c2cn(C3COCC(SC4OC(CO)C(O)C(n5cc(-c6cc(F)c(F)c(F)c6)nn5)C4OCC(=O)N4CC(C)OC(C)C4)C3O)nn2)cn1 (single isomer, unassigned) [Example 32], which IC50 is on record?
**A.** The IC50 was 19 nM.

**Q.** For COc1cnc(-c2cn([C@H]3COC[C@@H](S[C@@H]4O[C@H](CO)[C@H](O)[C@H](n5cc(-c6cc(F)c(F)c(F)c6)nn5)[C@H]4OC)[C@@H]3O)nn2)nc1N [Example 21, (2R,3R,4S,5R,6S)-6-(((3R,4R,5S)-5-(4-(4-amino-5-methoxypyrimidin-2-yl)-1H-1,2,3-triazol-1-yl)-4-hydroxytetrahydro-2H-pyran-3-yl)thio)-2-(hydroxymethyl)-5-methoxy-4-(4-(3,4,5-trifluorophenyl)-1H-1,2,3-triazol-1-yl)tetrahydro-2H-pyran-3-ol], which IC50 is on record?
**A.** Its IC50 is 23 nM.

**Q.** Which IC50 does the source give for O=C(O)COC1C(SC2COCC(n3cc(-c4cncnc4)nn3)C2O)OC(CO)C(O)C1n1cc(-c2cc(F)c(F)c(F)c2)nn1 [Example 26, 2-(((2S,3R,4S,5R,6R)-5-hydroxy-2-(((3R,4R,5S)-4-hydroxy-5-(4-(pyrimidin-5-yl)-1H-1,2,3-triazol-1-yl)tetrahydro-2H-pyran-3-yl)thio)-6-(hydroxymethyl)-4-(4-(3,4,5-trifluorophenyl)-1H-1,2,3-triazol-1-yl)tetranydro-2H-pyran-3-yl)oxy)acetic acid] here?
**A.** The IC50 was 15 nM.

**Q.** For COC(=O)COC1C(SC2COCC(n3cc(-c4cncnc4)nn3)C2O)OC(CO)C(O)C1n1cc(-c2cc(F)c(F)c(F)c2)nn1 [Example 27, methyl 2-(((2S,3R,4S,5R,6R)-5-hydroxy-2-(((3R,4R,5S)-4-hydroxy-5-(4-(pyriin-5-yl)-1H-1,2,3-triazol-1-yl)tetrahydro-2H-pyran-3-yl)thio)-6-(hydroxymethyl)-4-(4-(3,4,5-trifluorophenyl)-1H-1,2,3-triazol-1-yl)tetrahydro-2H-pyran-3-yl)oxy)acetate], which IC50 is on record?
**A.** The IC50 was 17 nM.

**Q.** For O=C(CO[C@@H]1[C@@H](n2cc(-c3cc(F)c(F)c(F)c3)nn2)[C@@H](O)[C@@H](CO)O[C@H]1S[C@@H]1COC[C@H](n2cc(-c3cncnc3)nn2)[C@H]1O)N1CCOCC1 [Example 28, 2-(((2S,3R,4S,5R,6R)-5-hydroxy-2-(((3R,4R,5S)-4-hydroxy-5-(4-(pyrimidin-5-yl)-1H-1,2,3-triazol-1-yl)tetrahydro-2H-pyran-3-yl)thio)-6-(hydroxymethyl)-4-(4-(3,4,5-trifluorophenyl)-1H-1,2,3-triazol-1-yl)tetrahydro-2H-pyran-3-yl)oxy)-1-morpholinoethan-1-one], which IC50 is on record?
**A.** The IC50 was 10 nM.

**Q.** Which IC50 does the source give for CN(C(=O)COC1C(SC2COCC(n3cc(-c4cncnc4)nn3)C2O)OC(CO)C(O)C1n1cc(-c2cc(F)c(F)c(F)c2)nn1)c1ccccc1 [Example 29, 2-(((2S,3R,4S,5R,6R)-5-hydroxy-2-(((3R,4R,5S)-4-hydroxy-5-(4-(pyrimidin-5-yl)-1H-1,2,3-triazol-1-yl)tetrahydro-2H-pyran-3-yl)thio)-6-(hydroxymethy)-4-(4-(3,4,5-trifluorophenyl)-1H-1,2,3-triazol-1-yl)-2H-pyran-3-yl)oxy)-N-methyl-N-phenylacetamide] here?
**A.** Its IC50 is 25 nM.

**Q.** With COc1ncc(-c2cn([C@H]3COC[C@@H](S[C@@H]4O[C@H](CO)[C@H](O)[C@H](n5cc(-c6cc(F)c(F)c(F)c6)nn5)[C@H]4OCC(=O)O)[C@@H]3O)nn2)cn1 [Example 30, 2-(((2S,3R,4S,5R,6R)-5-hydroxy-2-(((3R,4R,5S)-4-hydroxy-5-(4-(2-methoxypyrimidin-5-yl)-1H-1,2,3-triazol-1-yl)tetrahydro-2H-pyran-3-yl)thio)-6-(hydroxymethyl)-4-(4-(3,4,5-trifluorophenyl)-1H-1,2,3-triazol-1-yl)tetrahydro-2H-pyran-3-yl)oxy)acetic acid] as the compound, how does the IC50 read?
**A.** The IC50 was 8 nM.

**Q.** Which IC50 does the source give for COc1ncc(-c2cn([C@H]3COC[C@@H](S[C@@H]4O[C@H](CO)[C@H](O)[C@H](n5cc(-c6cc(F)c(F)c(F)c6)nn5)[C@H]4OCC(=O)N4CCOCC4)[C@@H]3O)nn2)cn1 [Example 31, 2-(((2S,3R,4S,5R,6R)-5-hydroxy-2-(((3R,4R,5S)-4-hydroxy-5-(4-(2-methoxypyrimidin-5-yl)-1H-1,2,3-triazol-1-yl)tetrahydro-2H-pyran-3-yl)thio)-6-(hydroxymethyl)-4-(4-(3,4,5-trifluorophenyl)-1H-1,2,3-triazol-1-yl)tetrahydro-2H-pyran-3-yl)oxy)-1-morpholinoethan-1-one] here?
**A.** The IC50 was 13 nM.

**Q.** With COc1ncc(-c2cn(C3COCC(SC4OC(CO)C(O)C(n5cc(-c6cc(F)c(F)c(F)c6)nn5)C4OCC(=O)N4CCS(=O)(=O)CC4)C3O)nn2)cn1 [Example 33, 1-(1,1-dioxidothiomorpholino)-2-(((2S,3R,4S,5R,6R)-5-hydroxy-2-(((3R,4R,5S)-4-hydroxy-5-(4-(2-methoxypyrimidin-5-yl)-1-1,2,3-triazol-1-yl)tetrahydro-2H-pyran-3-yl)thio)-6-(hydroxymethyl)-4-(4-(3,4,5-trifluorophenyl)-1H-1,2,3-triazol-1-yl)tetrahydro-2H-pyran-3-yl)oxy)ethan-1-one] as the compound, how does the IC50 read?
**A.** Its IC50 is 12 nM.

**Q.** How did the IC50 turn out when COc1ncc(-c2cn([C@H]3COC[C@@H](S[C@@H]4O[C@H](CO)[C@H](O)[C@H](n5cc(-c6cc(F)c(F)c(F)c6)nn5)[C@H]4OCC(=O)N4CC(O)C4)[C@@H]3O)nn2)cn1 [Example 34, 2-(((2S,3R,4S,5R,6R)-5-hydroxy-2-(((3R,4R,5S)-4-hydroxy-5-(4-(2-methoxypyrimidin-5-yl)-1H-1,2,3-triazol-1-yl)tetrahydro-2H-pyran-3-yl)thio)-6-(hydroxymethyl)-4-(4-(3,4,5-trifluorophenyl)-1H-1,2,3-triazol-1-yl)tetrahydro-2H-pyran-3-yl)oxy)-1-(3-hydroxyazetidin-1-yl)ethan-1-one] was run?
**A.** Its IC50 is 24 nM.

**Q.** Which IC50 does the source give for COc1ncc(-c2cn([C@H]3COC[C@@H](S[C@@H]4O[C@H](CO)[C@H](O)[C@H](n5cc(-c6cc(F)c(F)c(F)c6)nn5)[C@H]4OCC(=O)N4CCC4)[C@@H]3O)nn2)cn1 [Example 35, 1-(azetidin-1-yl)-2-(((2S,3R,4S,5R,6R)-5-hydroxy-2-(((3R,4R,5S)-4-hydroxy-5-(4-(2-methoxypyrimidin-5-yl)-1H-1,2,3-triazol-1-yl)tetrahydro-2H-pyran-3-yl)thio)-6-(hydroxymethyl)-4-(4-(3,4,5-trifluorophenyl)-1H-1,2,3-triazol-1-yl)tetrahydro-2H-pyran-3-yl)oxy)ethan-1-one] here?
**A.** Its IC50 is 32 nM.

**Q.** For CO[C@@H]1[C@@H](n2cc(-c3cccnc3)nn2)[C@@H](O)[C@@H](CO)O[C@H]1S[C@@H]1COC[C@H](n2cc(-c3ccccc3)nn2)[C@H]1O [Example A1, (2R,3R,4S,5R,6S)-6-(((3R,4R,5S)-4-hydroxy-5-(4-phenyl-1H-1,2,3-triazol-1-yl)tetrahydro-2H-pyran-3-yl)thio)-2-(hydroxymethyl)-5-methoxy-4-(4-(pyridin-3-yl)-1H-1,2,3-triazol-1-yl)tetrahydro-2H-pyran-3-ol], which IC50 is on record?
**A.** The IC50 was 1100 nM.

**Q.** For CO[C@@H]1[C@@H](n2cc(-c3ccncc3)nn2)[C@@H](O)[C@@H](CO)O[C@H]1S[C@@H]1COC[C@H](n2cc(-c3ccccc3)nn2)[C@H]1O [Example A2, (2R,3R,4S,5R,6S)-6-(((3R,4R,5S)-4-hydroxy-5-(4-phenyl-1H-1,2,3-triazol-1-yl)tetrahydro-2H-pyran-3-yl)thio)-2-(hydroxymethyl)-5-methoxy-4-(4-(pyridin-4-yl)-1H-1,2,3-triazol-1-yl)tetrahydro-2H-pyran-3-ol], which IC50 is on record?
**A.** The IC50 was 1100 nM.

**Q.** For CO[C@@H]1[C@@H](n2cc(-c3ccc(-c4ccccc4)cc3)nn2)[C@@H](O)[C@@H](CO)O[C@H]1S[C@@H]1COC[C@H](n2cc(-c3ccccc3)nn2)[C@H]1O [Example A3, (2R,3R,4S,5R,6S)-4-(4-([1,1′-biphenyl]-4-yl)-1H-1,2,3-triazol-1-yl)-6-(((3R,4R,5S)-4-hydroxy-5-(4-phenyl-1H-1,2,3-triazol-1-yl)tetrahydro-2H-pyran-3-yl)thio)-2-(hydroxymethyl)-5-methoxytetrahydro-2H-pyran-3-ol], which IC50 is on record?
**A.** Its IC50 is 11000 nM.

**Q.** With CO[C@@H]1[C@@H](n2cc(-c3cccc(F)c3)nn2)[C@@H](O)[C@@H](CO)O[C@H]1S[C@@H]1COC[C@H](n2cc(-c3ccccc3)nn2)[C@H]1O [Example A4, (2R,3R,4S,5R,6S)-4-(4-(3-fluorophenyl)-1H-1,2,3-triazol-1-yl)-6-(((3R,4R,5S)-4-hydroxy-5-(4-phenyl-1H-1,2,3-triazol-1-yl)tetrahydro-2H-pyran-3-yl)thio)-2-(hydroxymethyl)-5-methoxytetrahydro-2H-pyran-3-ol] as the compound, how does the IC50 read?
**A.** The IC50 was 26 nM.

**Q.** Which IC50 does the source give for CO[C@@H]1[C@@H](n2cc(-c3nccs3)nn2)[C@@H](O)[C@@H](CO)O[C@H]1S[C@@H]1COC[C@H](n2cc(-c3ccccc3)nn2)[C@H]1O [Example A5, (2R,3R,4S,5R,6S)-6-(((3R,4R,5S)-4-hydroxy-5-(4-phenyl-1H-1,2,3-triazol-1-yl)tetrahydro-2H-pyran-3-yl)thio)-2-(hydroxymethyl)-5-methoxy-4-(4-(thiazol-2-yl)-1H-1,2,3-triazol-1-yl)tetrahydro-2H-pyran-3-ol] here?
**A.** Its IC50 is 490 nM.

**Q.** How did the IC50 turn out when CO[C@@H]1[C@@H](n2cc(-c3cncnc3)nn2)[C@@H](O)[C@@H](CO)O[C@H]1S[C@@H]1COC[C@H](n2cc(-c3ccccc3)nn2)[C@H]1O [Example A6, (2R,3R,4S,5R,6S)-6-(((3R,4R,5S)-4-hydroxy-5-(4-phenyl-1H-1,2,3-triazol-1-yl)tetrahydro-2H-pyran-3-yl)thio)-2-(hydroxymethyl)-5-methoxy-4-(4-(pyrimidin-5-yl)-1H-1,2,3-triazol-1-yl)tetrahydro-2H-pyran-3-ol] was run?
**A.** Its IC50 is 360 nM.

**Q.** Which IC50 does the source give for CO[C@@H]1[C@@H](n2cc(-c3cncs3)nn2)[C@@H](O)[C@@H](CO)O[C@H]1S[C@@H]1COC[C@H](n2cc(-c3ccccc3)nn2)[C@H]1O [Example A7, (2R,3R,4S,5R,6S)-6-(((3R,4R,5S)-4-hydroxy-5-(4-phenyl-1H-1,2,3-triazol-1-yl)tetrahydro-2H-pyran-3-yl)thio)-2-(hydroxymethyl)-5-methoxy-4-(4-(thiazol-5-yl)-1H-1,2,3-triazol-1-yl)tetrahydro-2H-pyran-3-ol] here?
**A.** The IC50 was 840 nM.
